How the values were obtained:
[1] = tested on: NaCT-CHO (CHO cells stably expressing human NaCT); test: Assay of the citric acid cycle activation ([1,5-14C]-citric acid, diffusion of [14C]-CO2); type: cell-based; details: 1 hour incubation at 37° C. with [1,5-14C]-citric acid
In short: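 NaCT-CHO cells (pME-CHO empty-vector cells for non-specific counts) were incubated 1 h at 37 °C in Na+-containing HEPES-Tris pH 7.4 with compound plus an equal volume of 0.4 mM [1,5-14C]-citric acid solution. Residual cell radioactivity was counted, [14C]-CO2 diffusion was taken as (Total−R)/(Total−NS)×100%, and EC50 was derived by regression.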

[2] = tested on: Zucker Diabetic Fatty (ZDF) rat; test: Meal load test in type 2 diabetic model rats (postprandial blood glucose); type: in vivo; set-up: unit not given here; details: ZDF rats fasted overnight, oral 10 mg/kg in 5% Arabia gum, blood glucose one hour after meal loading (50 kcal/kg)
Description: Effects on Type 2 Diabetes: Meal Load Test
To evaluate whether a cyanotriazol compound improves diabetes or not, especially related to postprandial blood glucose, meal load test was performed using one of type 2 diabetic model rats, the Zucker Diabetic Fatty (ZDF) rat (Charles river, Japan). About 24 animals fasted overnight (17 h) were taken blood samples from the tail veins, and measured blood glucose levels (Pre BG) and body weights (BW). Proper animals were selected and divided into […] (n=6) based on the Pre BG and BW using SAS Statistical Analysis System (SAS institute Japan Ltd. Release 9.1). The compounds to be tested (10 or 30 mg/kg body weight in 5% Arabia gum) or Arabia gum solution only (vehicle group) were orally administrated via gavage two hours prior to or just before meal loading (50 kcal/kg body weight). The meal suspension was prepared by mixing purified AIN-93G (Norsan Corp, Yokohama, Japan) and distilled water (2:3, w/v). One-hour after meal loading, blood glucose (BG1h) of each animal was measured. Effectiveness of each compound was shown by ? BG1h (BG1h difference between compound group and vehicle group). Although a set of 24 animals was used several times (from 13 weeks to 21 weeks of age), at least a one-week interval was placed from one to another test.

| Compound | EC50 [1] [nM] | BG1h (BG1h difference between compound group and vehicle group) [2] |
| --- | --- | --- |
| N#Cc1[nH]nnc1-c1cccc(COc2cc(C(F)(F)F)ccn2)c1 [Example 55, 5-[3-(4-trifluoromethyl-pyridin-2-yloxymethyl)-phenyl]-3H-[1,2,3]triazole-4-carbonitrile] | 650 | −110.2 |
| N#Cc1[nH]nnc1-c1cccc(OCc2cc(C(F)(F)F)ccc2C(F)(F)F)c1 [Example 60, 5-[3-(2,5-bis-trifluoromethyl-benzyloxy)-phenyl]-3H-[1,2,3]triazole-4-carbonitrile] | 300 | −132.0 |
| N#Cc1[nH]nnc1-c1ccc(-c2nccc(C(F)(F)F)n2)cc1 [Example 70, 5-[4-(4-trifluoromethyl-pyrimidin-2-yl)-phenyl]-3H-[1,2,3]triazole-4-carbonitrile] | 510 | −137.2 |
| N#Cc1[nH]nnc1-c1csc(-c2ccc(Cl)cc2)n1 [Example 75, 5-[2-(4-chloro-phenyl)-thiazol-4-yl]-3H-[1,2,3]triazole-4-carbonitrile] | 880 | −83.2 |
| N#Cc1[nH]nnc1-c1csc(-c2ccc(Cl)c(Cl)c2)n1 [Example 77, 5-[2-(3,4-dichloro-phenyl)-thiazol-4-yl]-3H-[1,2,3]triazole-4-carbonitrile] | 910 | −61.3 |
| N#Cc1[nH]nnc1-c1csc(-c2cccc(C(F)(F)F)c2)n1 [Example 78, 5-[2-(3-trifluoromethyl-phenyl)-thiazol-4-yl]-3H-[1,2,3]triazole-4-carbonitrile] | 510 | −93.7 |
| N#Cc1[nH]nnc1-c1csc(-c2cccc(OC(F)(F)F)c2)n1 [Example 79, 5-[2-(3-trifluoromethoxy-phenyl)-thiazol-4-yl]-3H-[1,2,3]triazole-4-carbonitrile] | 620 | −51.0 |
| Cc1sc(-c2ccc(F)c(Cl)c2)nc1-c1nn[nH]c1C#N [Example 90, 5-[2-(3-chloro-4-fluoro-phenyl)-5-methyl-thiazol-4-yl]-3H-[1,2,3]triazole-4-carbonitrile] | 560 | −119.0 |
| Cc1sc(-c2ccc(C(F)(F)F)cc2)nc1-c1nn[nH]c1C#N [Example 92, 5-[5-methyl-2-(4-trifluoromethyl-phenyl)-thiazol-4-yl]-3H-[1,2,3]triazole-4-carbonitrile] | 820 | −69.2 |
| CCc1sc(-c2ccc(Cl)cc2)nc1-c1nn[nH]c1C#N [Example 98, 5-[2-(4-chloro-phenyl)-5-ethyl-thiazol-4-yl]-3H-[1,2,3]triazole-4-carbonitrile] | 590 | −87.9 |
| CCc1sc(-c2ccc(C(F)(F)F)cn2)nc1-c1nn[nH]c1C#N [Example 100] | 540 | −100.5 |
| N#Cc1[nH]nnc1-c1nc(-c2cccc(C(F)(F)F)c2)sc1Cl [Example 108, 5-[5-chloro-2-(3-trifluoromethyl-phenyl-phenyl)-thiazol-4-yl]-3H-[1,2,3]triazole-4-carbonitrile] | 420 | −101.9 |
| N#Cc1[nH]nnc1-c1nc(-c2cccc(C(F)(F)F)c2)oc1C1CC1 [Example 120, 5-[5-cyclopropyl-2-(3-trifluoromethyl-phenyl)-oxazol-4-yl]-3H-[1,2,3]triazole-4-carbonitrile] | 890 | −114.3 |
| CC(C)c1oc(-c2ccc(Cl)cc2)nc1-c1nn[nH]c1C#N [Example 122, 5-[2-(4-chloro-phenyl)-5-isopropyl-oxazol-4-yl]-3H-[1,2,3]triazole-4-carbonitrile] | 510 | −75.5 |
| N#Cc1[nH]nnc1-c1ccc(/C=C/c2cccc(C(F)(F)F)c2)o1 [Example 137, 5-{5-[(E)-2-(3-trifluoromethyl-phenyl)-vinyl]-furan-2-yl}-3H-[1,2,3]triazole-4-carbonitrile] | 570 | −162.6 |
| N#Cc1[nH]nnc1-c1ccc2ccn(CCCC(F)(F)F)c2c1 [Example 146] | 410 | −94.9 |
| N#Cc1[nH]nnc1-c1cc2ccc(-c3ccc(F)cc3)cc2o1 [Example 147, 5-[6-(4-fluoro-phenyl)-benzofuran-2-yl]-3H-[1,2,3]triazole-4-carbonitrile] | 1660 | −80.5 |
| N#Cc1[nH]nnc1-c1cccc(-c2cc(F)cc(C(F)(F)F)c2)c1 [Example 220, 5-(5′-fluoro-3′-trifluoromethyl-biphenyl-3-yl)-3H-[1,2,3]triazole-4-carbonitrile] | 350 | −85.6 |
| N#Cc1[nH]nnc1-c1cc(Cl)cc(-c2cc(C(F)(F)F)cc(C(F)(F)F)c2)c1 [Example 275, 5-(5-chloro-3′,5′-bis-trifluoromethyl-biphenyl-3-yl)-3H-[1,2,3]triazole-4-carbonitrile] | 1040 | −83.3 |
| N#Cc1[nH]nnc1-c1cc(Cl)cc(-c2ccc(OC(F)(F)F)c(F)c2)c1 [Example 276, 5-(5-chloro-3′-fluoro-4′-trifluoromethoxy-biphenyl-3-yl)-3H-[1,2,3]triazole-4-carbonitrile] | 850 | −71.4 |
| N#Cc1[nH]nnc1-c1cc(OC(F)(F)F)cc(-c2ccc(OC(F)(F)F)c(F)c2)c1 [Example 298, 5-(3′-fluoro-5,4′-bis-trifluoromethoxy-biphenyl-3-yl)-3H-[1,2,3]triazole-4-carbonitrile] | 740 | −62.8 |
| N#Cc1[nH]nnc1-c1cccc(OCc2ccc(C(F)(F)F)c(C(F)(F)F)c2)c1 [Example 423, 5-[3-(3,4-bis-trifluoromethyl-benzyloxy)-phenyl]-3H-[1,2,3]triazole-4-carbonitrile] | 920 | −87.6 |
| N#Cc1[nH]nnc1-c1cc(OCc2cc(C(F)(F)F)ccc2C(F)(F)F)cc(OC(F)(F)F)c1 [Example 504, 5-[3-(2,5-bis-trifluoromethyl-benzyloxy)-5-trifluoromethoxy-phenyl]-3H-[1,2,3]triazole-4-carbonitrile] | 1470 | −69.1 |
| N#Cc1[nH]nnc1-c1cc(Cl)cc(/C=C/c2cc(C(F)(F)F)cc(C(F)(F)F)c2)c1 [Example 610, 5-{3-[(E)-2-(3,5-bis-trifluoromethyl-phenyl)-vinyl]-5-chloro-phenyl}-3H-[1,2,3]triazole-4-carbonitrile] | 1740 | −86.8 |
| N#Cc1[nH]nnc1-c1cccc(/C=C/c2cccc(C(F)(F)F)c2)c1 [Example 613, 5-{3-[(E)-2-(3-trifluoromethyl-phenyl)-vinyl]-phenyl}-3H-[1,2,3]triazole-4-carbonitrile] | 430 | −138.8 |

— US10626095B2, “Cyanotriazole compounds” (OTSUKA PHARMACEUTICAL CO., LTD., priority 2013, dated 2020)
